Data published in patent US8293705B2, “HCV protease inhibitors and uses thereof” (Avila Therapeutics, Inc., priority 2007, dated 2012).
“And” between values parts separate entries of the source, which are not always exact repeats. Equal values may be shown once.

Legend:
[1] = target: T1, NS3 protease self-cleavage in Huh-7-Luc-Neo-ET replicon cells (Hepatitis C virus genotype 1b, UniProt Q9WMX2, E1202G/T1280I); test: Inhibition of protease self cleavage in replicon cells (washout); format: cell-based; conditions: 16 hours incubation, then removed
T1 construct: blotted with polyclonal anti NS3 antibody (Bioenza, Calif.)
Procedure: Huh-7-Luc-Neo-ET cells were plated in Replicon Assay Medium (RPMI supplemented with 5% FBS, 1× non-essential amino acids and pen/strep) at a density of 1×10^5 cells/well in 12 well plates. Eight hours later the media was removed and replaced with 1 ml media containing test compound (5 wells per compound) and 0.02% DMSO and the cells were returned to the incubator overnight. Sixteen hours later 1 well from each compound and 1 untreated well were washed with PBS, then lysed and scraped into 30 ul of Cell Extraction Buffer (Biosource, Camarillo, Calif.) plus Complete Protease Inhibitor (Roche, Indianapolis, Ind.). The remaining wells were rinsed 2× with PBS then fed with Replicon Media and returned to the incubator. […]
Cell lysates were separated by SDS-Page (4-20%) and transferred to Immobilon-P PVDF membrane (Millipore Corporation, MA) and blotted with polyclonal anti NS3 antibody (Bioenza, Calif.). Blots were scanned on an Odyssey infrared scanner from Licor and the FL band and cleavage products were quantified separately using the Licor software provided with the scanner. The cleavage product was calculated as a percentage of the total NS3 in each sample and then normalized to the DMSO control so that the DMSO control reflects 100% activity.

[2] = target: T2, HCV NS3/4A 1b protease A156T (Hepatitis C virus genotype 1b, UniProt Q9WMX2, A1182T); test: HCV protease FRET assay (IC50_APP), Example 16; format: biochemical
T2 construct: 10× stocks of NS3/4A protease enzyme from Bioenza (Mountain View, Calif.); purchased Bioenza (Mountain View, Calif.)

[3] = target: T3, HCV NS3/4A 1b protease wild type (Hepatitis C virus genotype 1b, UniProt Q9WMX2); test: HCV protease FRET assay (IC50_APP), Example 16; format: biochemical
T3 construct: 10× stocks of NS3/4A protease enzyme from Bioenza (Mountain View, Calif.); purchased Bioenza (Mountain View, Calif.)

[4] = target: T4, HCV NS3/4A 1b protease D168A (Hepatitis C virus genotype 1b, UniProt Q9WMX2, D1194A); test: HCV protease FRET assay (IC50_APP), Example 16; format: biochemical
T4 construct: 10× stocks of NS3/4A protease enzyme from Bioenza (Mountain View, Calif.); purchased Bioenza (Mountain View, Calif.)

[5] = target: T3, HCV NS3/4A 1b protease wild type; test: HCV protease FRET assay (IC50), Example 15; format: biochemical
Procedure: (§1) The following protocol was used to generate IC50 values as depicted for compound 239 in Table 4, above. The protocol is a modified FRET-based assay (v—02) from In Vitro Resistance Studies of HCV Serine Protease Inhibitors, 2004, JBC, vol. 279, No. 17, pp 17508-17514.
(§2) 10× stocks of NS3/4A protease enzyme from Bioenza (Mountain View, Calif.) and 1.13× 5-FAM/QXL™520 FRET peptide substrate from Anaspec (San Jose, Calif.) were prepared in 50 mM HEPES, pH 7.8, 100 mM NaCl, 5 mM DTT and 20% glycerol. 5 μL of each enzyme were pre-incubated in a Corning (#3573) 384-well, black, non-treated microtiter plate (Corning, N.Y.) for 30 min at 25° C. with a 0.5 μL volume of 50% DMSO and serially diluted compounds prepared in 50% DMSO. Protease reactions were started with the addition of 45 μL of the FRET substrate and monitored for 120 minutes at λex487/λem514 through Quad^4 monochromoters in a Synergy^4 plate reader from BioTek (Winooski, Vt.). At the conclusion of each assay, progress curves from each well were examined for linear reaction kinetics and fit statistics (R^2, absolute sum of squares). Initial velocity (0 minutes to 30+ minutes) from each reaction was determined from the slope of a plot of relative fluorescence units vs time (minutes) and then plotted against inhibitor concentration to estimate IC50 from log [Inhibitor] vs Response, Variable Slope model in GraphPad Prism from GraphPad Software (San Diego, Calif.).
(§3) The compound numbers correspond to the compound numbers in Table 3. […] ;

[6] = target: T4, HCV NS3/4A 1b protease D168A; test: HCV protease FRET assay (IC50), Example 15; format: biochemical; conditions: Inhibition (IC50), HCV D168A, FRET, 30 min pre-incubation at 25° C.
Procedure: as §1, §2, §3

HCV NS3/4A wild type = target: T5, HCV NS3/4A wild type (Hepatitis C virus genotype 1b, UniProt Q9WMX2); test: Mass spectrometric analysis of covalent modification (MALDI-TOF); format: binding; conditions: 10× excess of test compound to protein; MALDI-TOF
T5 construct: HCV NS3/4A wild type (wt) was incubated for 1 hr at a 10× fold access of test compound to protein; purchased Bioenza, Calif
Procedure: Mass spectrometric analysis of HCV wild type or HCV variant C159S in the presence of test compound is performed. 100 pmols of HCV wild type (Bioenza, Calif.) is incubated with test compound for 1 hr and 3 hrs at 10-fold access of test compound to protein. 1 ul aliquots of the samples (total volume of 4.24 ul) are diluted with 10 ul of 0.1% TFA prior to micro C4 ZipTipping directly onto the MALDI target using Sinapinic acid as the desorption matrix (10 mg/mL in 0.1% TFA:Acetonitrile 50:50). Analyses are performed on a Shimadzu Biotech Axima TOF2 (Shimadzu Instruments) matrix-assisted-laser desorption/ionization Time-of-Flight (MALDI-TOF) mass spectrometer. The same procedure is carried out on 100 pmols of HCV C159S mutant of HCV protease for 3 hrs at 10-fold excess of test compound to protein.
As depicted in FIGS. 1 and 2, mass spectrometric analysis of HCV wild type in the presence of test compounds I-1 and I-25 was performed using the following protocol: HCV NS3/4A wild type (wt) was incubated for 1 hr at a 10× fold access of test compound to protein. 2 ul aliquots of the samples were diluted with 10 ul of 0.1% TFA prior to micro C4 ZipTipping directly onto the MALDI target using Sinapinic acid as the desorption matrix (10 mg/ml in 0.1% TFA:Acetonitrile 50:50). For intact protein mass measurement the instrument was set in linear mode using a pulsed extraction setting of 24,500 and apomyoglobin as the standard to calibrate the instrument.

HCV NS3/4A D168A = HCV NS3/4A D168A (Hepatitis C virus genotype 1b, UniProt Q9WMX2, D1194A); test: Mass spectrometric analysis of covalent modification; format: binding; conditions: methods described in Example 18
Procedure: HCV is incubated with test compound for 3 hrs prior to tryptic digestion. Todoacetamide is used as the alkylating agent after compound incubation. For tryptic digests a 2 ul aliquot (0.06 ug/ul) is diluted with 10 ul of 0.1% TFA prior to micro C18 Zip Tipping directly onto the MALDI target using alpha cyano-4-hydroxy cinnamic acid as the matrix (5 mg/mL in 0.1% TFA:Acetonitrile 50:50).
For tryptic digests the instrument is set in Reflectron mode with a pulsed extraction setting of 1800. Calibration is done using the Laser Biolabs Pep Mix standard (1046.54, 1296.69, 1672.92, 2093.09, 2465.20). For CID/PSD analysis the peptide is selected using cursors to set ion gate timing and fragmentation occurred at a laser power about 20% higher and He is used as the collision gas for CID. Calibration for fragments is done using the P14R fragmentation calibration for the Curved field Reflectron.
As depicted in FIGS. 4, 5, 6, and 7, mass spectrometric analysis of HCV mutants in the presence of compound I-11 was performed. […] 2 ul aliquots of the samples were diluted with 10 ul of 0.1% TFA prior to micro C4 ZipTipping directly onto the MALDI target using Sinapinic acid as the desorption matrix (10 mg/ml in 0.1% TFA:Acetonitrile 50:50). […]

[7] = system: HCV RNA replicon in cell line ET (luc-ubi-neo/ET), human Huh7 hepatoma; test: HCV RNA replicon assay, Example 14 Method A; format: cell-based; conditions: Hepatitis C virus, Huh-7, assay of Example 14, 72 hr; for IC50: read-out: Inhibition, Replicon (IC50); for IC90: read-out: Inhibition, Replicon, IC90 value
Procedure: The compounds were assayed to evaluate the antiviral activity and cytotoxicity of compounds in vitro using HCV RNA replicons. This assay used the cell line ET (luc-ubi-neo/ET), which is a human Huh7 hepatoma cell line that contains an HCV RNA replicon with a stable luciferase (Luc) reporter and three cell culture-adaptive mutations. […]
The ET cell line was grown in Dulbecco's modified essential media (DMEM), 10% fetal bovine serum (FBS), 1% penicillin-streptomycin (pen-strep), 1% glutamine, 250 μg/mL G418 in a 5% CO2 incubator at 37° C. All cell culture reagents were obtained from Mediatech (Manassas, Va.). Cells were trypsinized (1% trypsin:EDTA) and plated out at 5×10^3 cells/well in white 96-well assay plates (Costar) dedicated to cell number (cytotoxicity) or antiviral activity assessments. Drugs were added at six 3-fold concentrations each and the assay was run in DMEM, 5% FBS, 1% pen-strep, 1% glutamine. Human interferon alpha-2b (PBL Biolabs, New Brunswick, N.J.) was included in each run as a positive control compound. Cells were processed 72 hr post drug addition when the cells are still subconfluent. Antiviral activity was measured by analyzing replicon-derived luciferase activity using the Steady-Glo Luciferase Assay System (Promega, Madison, Wis.) according to manufacturer's instruction. The number of cells in each well was determined by CytoTox-1 reagent (Promega). Compound profile was derived by calculating applicable EC50 (effective concentration inhibiting virus replication by 50%), EC90 (effective concentration inhibiting virus replication by 90%), IC50 (concentration decreasing cell viability by 50%) and SI50 (selective index: […]) values.

[8] = target: T2, HCV NS3/4A 1b protease A156T; test: HCV protease FRET assay (IC50), Example 15; format: biochemical; conditions: Inhibition (IC50), HCV A156T, FRET, 30 min pre-incubation at 25° C.
Procedure: as §1, §2, §3

SMILES | Time to virtually complete return of NS3 self-cleaving activity after drug removal [1] | IC50 [2] [nM] | IC50 [3] [nM] | IC50 [4] [nM] | IC50 [5] [nM] | IC50 [6] [nM] | Covalent modification of HCV NS3/4A wild type (HCV NS3/4A wild type) | Covalent modification of HCV NS3/4A D168A (HCV NS3/4A D168A) | IC50 [7] [nM] | IC90 [7] [nM] | IC50 [8] [nM]
CCC[C@H](NC(=O)[C@@H]1[C@H]2CCC[C@H]2CN1C(=O)[C@@H](NC(=O)[C@@H](NC(=O)c1cnccn1)C1CCCCC1)C(C)(C)C)C(=O)C(=O)NC1CC1 [VX-950] | 4 h and 8 h | – | – | – | – | – | – | – | – | – | –
C=C[C@@H]1C[C@]1(NC(=O)[C@@H]1C[C@@H](OC(=O)N2Cc3cccc(F)c3C2)CN1C(=O)CNC(=O)/C=C/C)C(=O)NS(=O)(=O)C1CC1 [Compound I-7, (3R,5S)-1-(2-(E)-but-2-enamidoacetyl)-5-((1R,2S)-1-(cyclopropylsulfonylcarbamoyl)-2-vinylcyclopropylcarbamoyl)pyrrolidin-3-yl-4-fluoroisoindoline-2-carboxylate] | – | 100 to 1000 | 100 to 1000 | 1000 to 10000 | 10 to 100 | 1000 to 10000 | – | – | – | – | –
C=CC(=O)NC[C@H](NC(=O)OC1CCCC1)C(=O)N1C[C@H](OC(=O)N2Cc3cccc(F)c3C2)C[C@H]1C(=O)N[C@]1(C(=O)NS(=O)(=O)C2CC2)C[C@H]1C=C [Compound I-19, (3R,5S)-1-((S)-3-acrylamido-2-(cyclopentyloxycarbonylamino)propanoyl)-5-((1R,2S)-1-(cyclopropylsulfonylcarbamoyl)-2-vinylcyclopropylcarbamoyl)pyrrolidin-3-yl 4-fluoroisoindoline-2-carboxylate] | – | < 10 | < 10 | 10 to 100 | – | – | measurable covalent modification | measurable covalent modification | – | – | –
C=CC(=O)NCC(=O)N1C[C@H](OC(=O)N2Cc3cccc(F)c3C2)C[C@H]1C(=O)N[C@]1(C(=O)NS(=O)(=O)C2CC2)C[C@H]1C=C [Compound I-6, (3R,5S)-1-(2-acrylamidoacetyl)-5-((1R,2S)-1-(cyclopropylsulfonylcarbamoyl)-2-vinylcyclopropylcarbamoyl)pyrrolidin-3-yl 4-fluoroisoindoline-2-carboxylate] | – | < 10 | < 10 | 100 to 1000 | < 10 | 10 to 100 | measurable covalent modification | – | 100 to 1000 | 1000 to 10000 | < 10
C=CC(=O)O[C@H](C)[C@H](NC(=O)OC(C)(C)C)C(=O)N1C[C@H](OC(=O)N2Cc3cccc(F)c3C2)C[C@H]1C(=O)N[C@]1(C(=O)NS(=O)(=O)C2CC2)C[C@H]1C=C [Compound I-24, (3R,5S)-1-((2S,3R)-3-(acryloyloxy)-2-(tert-butoxycarbonylamino)butanoyl)-5-((1R,2S)-1-(cyclopropylsulfonylcarbamoyl)-2-vinylcyclopropylcarbamoyl)pyrrolidin-3-yl 4-fluoroisoindoline-2-carboxylate] | – | < 10 | < 10 | < 10 | – | – | measurable covalent modification | measurable covalent modification | 10 to 100 | 100 to 1000 | –
